# From patent US20250213519A1, “SYNERGY FOR INCREASING INSULIN SENSITIVITY” (Board of Supervisors of Louisiana State University and …, priority 2022, published 2025)
# Experiments:
# human adipocytes = assay: Protein levels by Western blotting in human adipocytes treated for seven days; format: cell-based; details: for SIRT3 protein levels, NR combined with myricetin: 8 μM NR + 50 nM myricetin vs NR or myr alone
# Source text: Since we saw an increase in SIRT3 mRNA and myricetin upregulates SIRT3 protein in adipocytes from mice, we analyzed levels of SIRT3 protein in human adipocytes treated for seven days with the same concentrations of compounds. Protein was isolated from adipocytes and analyzed on immunoblots probed with antibodies that specifically bind human SIRT3 or human β-actin. […] However, adding myr to NR+BC boosted SIRT3 protein by 37%.
# Human adipose-derived stem cells from overweight and obese female donors were purchased from LaCell, LLC (New Orleans, Louisiana) or isolated from lipoaspirate waste donated post-surgery from women with obesity using methods as previously described (31). Cells were seeded, maintained until two days after becoming confluent, and differentiated into adipocytes in the presence of rosiglitazone and isobutylmethylxanthine for five days as previously described (25). Treatments of adipocytes with 8 μM NR and 2 μM carotenoid, dissolved in DMSO at 1000×, started 5 days after the differentiation period and lasted for seven days in adipocyte maintenance medium with heat inactivated serum, before RNA and protein were isolated from adipocyte cultures.
# Whole cell protein was isolated from differentiated cell cultures after treatment for seven days, lysed with RIPA buffer containing protease and phosphatase inhibitors, and pushed through a 20-gauge needle four times to disrupt organelles. Fifty micrograms of total cell protein were loaded per lane and resolved in 7.5% SDS-PAGE gels, transferred to nitrocellulose membranes, and probed overnight at 4° C. with specific primary antibodies. Anti-rabbit or -mouse secondary antibodies conjugated to horseradish peroxidase were used for detection of target proteins. Image J was used to quantify protein bands on Western blots. To adjust for variations in total protein loaded in each lane, β-actin was used.
# PPARg P-serine 273 = assay: Immunoblot of PPARg phosphorylation at serine 273; format: cell-based, human; details: 50 nM myricetin + 8 μM NR + 2 μM BC, 7 days
# Protocol: Phosphorylation of PPARg by CDK5 at serine-273 is an important mechanism for inhibition of target genes for insulin sensitivity^7. Inhibitors of CDK5 have potential as diabetes drugs^8. Several studies have provided that myricetin is a CDK5 inhibitor and has insulin sensitizing characteristics that make it a potential therapeutic for diabetes^9,10. We previously analyzed NRBC for effects on PPARg phosphorylation at serine 273. Human adipocytes were treated with 8 μM NR and 2 μM BC for three, five and seven days, and protein was isolated and analyzed on immunoblots probed with an antibody specific for human P-serine 273 PPARg. The same blot was stripped and re-probed with an antibody for total human PPARg. Values in the histogram represent (P-ser 273 PPARg)/(total PPARg). […] The effect increases over time.
# The experiment for analysis of phosphorylation of PPARg at P-273 was repeated to determine whether adding myricetin to NRBC can further inhibit PPARg P-273 phosphorylation. Cells were treated for seven days with 8 μM NR, 2 μM BC and 50 nM myricetin. Protein was analyzed on immunoblots probed with the same antibodies.
structure (smiles),measurement,setting,value
O=c1c(O)c(-c2cc(O)c(O)c(O)c2)oc2cc(O)cc(O)c12 [myricetin],"SIRT3 protein levels, NR combined with myricetin",human adipocytes,does not increase SIRT3 protein levels
same,"SIRT3 protein levels, NR combined with myricetin",human adipocytes; listed as Myricetin,did not increase SIRT3 protein levels
same,"SIRT3 protein levels, single agent","human adipocytes; 8 μM NR or 50 nM myricetin, 7 days",upregulate SIRT3 protein levels
same,increase in SIRT3 protein,human adipocytes; myr added to NR+BC,37%
same,increase in SIRT3 mRNA and protein,human adipocytes; myr added to NRBC (summary),two-fold
same,"PPARg P-273 phosphorylation, myricetin added to NRBC",PPARg P-serine 273,did not further decrease PPARg P-273 relative to NRBC
same,"PPARg P-273 phosphorylation, myricetin added to NRBC",PPARg P-serine 273; listed as Myricetin,did not alter phosphorylation of PPARg at serine-273
